Measurements reported in patent publication US20230174556A1, “COMPOUNDS AS PROTEIN KINASE INHIBITORS” (Fochon Biosciences, Ltd., priority 2020, published 2023).

Tested on: OCI-LY10 (PI3Kδ dependent) cells
Assay: OCI-LY10 cell proliferation assay (MTS)
Assay type: cell-based
Details: inhibition of OCI-LY10 cells proliferation, 72 h incubation, MTS readout at 490 nm
Description: MTS testing kit was purchased from Promega (Madison, WI, USA). The RPMI-1640, Fetal bovine serum and Penicillin-Streptomycin were purchased from BI (Biological Industries, Beit Haemek, Israel). Dimethyl sulfoxide (DMSO) was purchased from Sigma (St. Louis., MO, USA). OCI-LY10 cells were cultured in RPMI1640 supplemented with Penicillin-Streptomycin and 10% FBS.
To investigate whether a compound is able to inhibit the activity of PI3Kδ in cells, a mechanism-based assay using OCI-LY10 (PI3Kδ dependent) cells was developed. In this assay, inhibition of PI3Kδ was detected by the inhibition of OCI-LY10 cells proliferation. Cells were plated into 96-well plates at a density of 10000 cells/well. Plates were incubated at 37° C., with 5 % CO2 for 4 h. Compounds were serially diluted and added to the plates with the final compound concentrations as 10000, 3333.3, 1111.1, […], 123.5, 41.2, 13.7, 4.6 and 1.5 nM. Plates were incubated at 37° C., with 5 % CO2 for 72 h. 20 µl MTS was added into each well and the plates were incubated at 37° C., with 5 % CO2 for exactly 2 h. The absorbance was measured by a microplate reader at 490 nm. IC50 was calculated using GraphPad Prism 5.0 software.

IC50 (Homo sapiens, OCI-Ly10, 72 h) [nM] | SMILES | IC50 [nM]
 | COc1ncc(-c2nn([C@@H](C)c3cc4scc(C)n4c(=O)c3-c3cccc(F)c3)c3ncnc(N)c23)cc1NS(C)(=O)=O [Example 77, (S)-N-(5-(4-amino-1-(1-(6-(3-fluorophenyl)-3-methyl-5-oxo-5H-thiazolo[3,2-a]pyridin-7-yl)ethyl)-1H-pyrazolo[3,4-d]pyrimidin-3-y1)-2-methoxypyridin-3-yl)methanesulfonamide] | 1
 | COc1ncc(-c2nn([C@@H](C)c3cc4scc(Cl)n4c(=O)c3-c3ccccc3)c3ncnc(N)c23)cc1NS(C)(=O)=O [Example 78, (S)-N-(5-(4-amino-1-(1-(3-chloro-5-oxo-6-phenyl-5H-thiazolo[3,2-α]pyridin-7-yl)ethyl)-1H-pyrazolo[3,4-d]pyrimidin-3-yl)-2-methoxypyridin-3-yl)metha nesulfonamide] | 3
2 | COc1ncc(-c2nn([C@@H](C)c3cc4scc(Cl)n4c(=O)c3-c3cccc(F)c3)c3ncnc(N)c23)cc1NS(C)(=O)=O [Example 79, (S)-N-(5-(4-amino-1-(1-(3-chloro-6-(3-fluorophenyl)-5-oxo-5H-thiazolo[3,2-a]pyridin-7-yl)ethyl)-1H-pyrazolo[3,4-d]pyrimidin-3-yl)-2-methoxypyridin-3-yl)methanesulfonamide] | 
 | Cc1csc2cc([C@H](C)n3nc(-c4ccc(OC(C)C)c(C#N)c4)c4c(N)ncnc43)c(-c3ccccc3)c(=O)n12 [Example 82, (S)-5-(4-amino-1-(1-(3-methyl-5-oxo-6-phenyl-5H-thiazolo[3,2-α]pyridin-7-yl)ethyl)-1H-pyrazolo[3,4-d]pyrimidin-3-yl)-2-isopropoxybenzonitrile] | 1
 | Cc1csc2cc([C@H](C)n3nc(-c4ccc(OC(C)C)c(C#N)c4)c4c(N)ncnc43)c(-c3cccc(F)c3)c(=O)n12 [Example 83, (S)-5-(4-amino-1-(1-(6-(3-fluorophenyl)-3-methyl-5-oxo-5H-thiazolo[3,2-α]pyridin-7-yl)ethyl)-1H-pyrazolo[3,4-d]pyrimidin-3-yl)-2-isopropoxybenzonitrile] | 1
 | CC(C)Oc1ccc(-c2nn([C@@H](C)c3cc4scc(Cl)n4c(=O)c3-c3ccccc3)c3ncnc(N)c23)cc1C#N [Example 84, (S)-5-(4-amino-l-(1-(3-chloro-5-oxo-6-phenyl-5H-thiazolo[3,2-α]pyridin-7-yl)ethyl)-1H-pyrazolo[3,4-d]pyrimidin-3-yl)-2-isopropoxy benzonitrile] | 1
 | CC(C)Oc1ccc(-c2nn([C@@H](C)c3cc4scc(Cl)n4c(=O)c3-c3cccc(F)c3)c3ncnc(N)c23)cc1C#N [Example 85, (S)-5-(4-amino-1-(1-(3-chloro-6-(3-fluorophenyl)-5-oxo-5H-thiazolo[3,2-α]pyridin-7-yl)ethyl)-1H-pyrazolo[3,4-d]pyrimidin-3-yl)-2-isopropoxybenzonitrile] | 8
 | CC(C)Oc1ccc(-c2nn([C@@H](C)c3cc4scc(Cl)n4c(=O)c3-c3ccccc3)c3ncnc(N)c23)cn1 [Example 86, (S)-7-(1-(4-amino-3-(6-isopropoxypyridin-3-yl)-1H-pyrazolo[3,4-d]pyrimidin-1-yl)ethyl)-3-chloro-6-phenyl-5H-thia zolo [3,2-α] pyridin-5-one] | 2
 | CC(C)Oc1ccc(-c2nn([C@@H](C)c3cc4scc(Cl)n4c(=O)c3-c3cccc(F)c3)c3ncnc(N)c23)cn1 [Example 87, (S)-7-(1-(4-amino-3-(6-isopropoxypyridin-3-yl)-1H-pyrazolo[3,4-d]pyrimidin-1-yl)ethyl)-3-chloro-6-(3-fluoropheny 1)-5H-thiazol[3,2-α]pyridin-5-one] | 64
 | Cc1csc2cc([C@H](C)n3nc(-c4cnc(OC(C)C)nc4)c4c(N)ncnc43)c(-c3ccccc3)c(=O)n12 [Example 88, (S)-7-(1-(4-amino-3-(2-isopropoxypyrimidin-5-yl)-1H-pyrazolo[3,4-d]pyrimidin-1-yl)ethyl)-3-methyl-6-phenyl-5H-thiazolo[3,2-α]pyridin-5-one] | 34
 | Cc1csc2cc([C@H](C)n3nc(-c4cnc(OC(C)C)nc4)c4c(N)ncnc43)c(-c3cccc(F)c3)c(=O)n12 [Example 89, (S)-7-(1-(4-amino-3-(2-isopropoxypyrimidin-5-yl)-1H-pyrazolo[3,4-d]pyrimidin-1-yl)ethyl)-6-(3-fluorophenyl)-3-methyl-5H-thiazolo[3,2-α]pyridin-5-one] | 73
 | CC(C)Oc1ncc(-c2nn([C@@H](C)c3cc4scc(Cl)n4c(=O)c3-c3ccccc3)c3ncnc(N)c23)cn1 [Example 90, (S)-7-(1-(4-amino-3-(2-isopropoxypyrimidin-5-yl)-1H-pyrazolo[3,4-d]pyrimidin-1-yl)ethyl)-3-chloro-6-phenyl-5H-thiazolo[3,2-α]pyridin-5-one] | 7
 | CC(C)Oc1ncc(-c2nn([C@@H](C)c3cc4scc(Cl)n4c(=O)c3-c3ccccc3)c3ncnc(N)c23)cc1F [Example 94, (S)-7-(1-(4-amino-3-(5-fluoro-6-isopropoxypyridin-3-yl)-1H-pyrazolo[3,4-d]pyrimidin-1-yl)ethyl)-3-chloro-6-phenyl-5H-thiazolo[3,2-α]pyridin-5-one] | 30
 | Cc1csc2cc([C@H](C)n3nc(-c4cnc(OC(C)C)c(C#N)c4)c4c(N)ncnc43)c(-c3ccccc3)c(=O)n12 [Example 96, (S)-5-(4-amino-1-(1-(3-methyl-5-oxo-6-phenyl-5H-thiazolo[3,2-α]pyridin-7-yl)ethyl)-1H-pyrazolo[3,4-d]pyrimidin-3-yl)-2-isopropoxynicotinonitrile] | 21
 | Cc1csc2cc([C@H](C)n3nc(-c4cnc(OC(C)C)c(C#N)c4)c4c(N)ncnc43)c(-c3cccc(F)c3)c(=O)n12 [Example 97, (S)-5-(4-amino-1-(1-(6-(3-fluoropheny 1)-3-methyl-5-oxo-5H-thiazolo[3,2-α]pyridin-7-yl)ethyl)-1H-pyrazolo[3,4-d]pyrimidin-3-yl)-2-isopropoxynicotinoni trile] | 44
 | CC(C)Oc1ncc(-c2nn([C@@H](C)c3cc4scc(Cl)n4c(=O)c3-c3ccccc3)c3ncnc(N)c23)cc1C#N [Example 98, (S)-5-(4-amino-1-(1-(3-chloro-5-oxo-6-phenyl-5H-thiazolo[3,2-α]pyridin-7-y 1)ethyl)-1H-pyrazolo[3,4-d]pyrimidin-3-yl)-2-isopropoxynicotinonitrile] | 8
 | CC(C)Oc1ncc(-c2nn([C@@H](C)c3cc4scc(Cl)n4c(=O)c3-c3cccc(F)c3)c3ncnc(N)c23)cc1C#N [Example 99, (S)-5-(4-amino-1-(1-(3-chloro-6-(3-fluorophenyl)-5-oxo-5H-thiazolo[3,2-α]pyridin-7-yl)ethyl)-1H-pyrazolo[3,4-d]pyrimidin-3-yl)-2-isopropoxynicotinoni trile] | 8
 | Cc1csc2nc([C@H](C)n3nc(-c4ccc(OC(C)C)c(C#N)c4)c4c(N)ncnc43)c(-c3cccc(F)c3)c(=O)n12 [Example 101, (S)-5-(4-amino-1-(1-(6-(3-fluoropheny 1)-3-methyl-5-oxo-5H-thiazolo[3,2-α]pyrimidin-7-yl)ethyl)-1H-pyrazolo[3,4-d]pyrimidin-3-yl)-2-isopropoxybenzon itrile] | 18
 | Cc1csc2nc([C@H](C)n3nc(-c4ccc(OC(C)C)nc4)c4c(N)ncnc43)c(-c3cccc(F)c3)c(=O)n12 [Example 102, (S)-7-(1-(4-amino-3-(6-isopropoxypyridin-3-yl)-1H-pyrazolo[3,4-d]pyrimidin-1-yl)ethyl)-6-(3-fluorophenyl)-3-methyl-5H-thiazolo[3,2-α]pyrimidin-5-one] | 70
 | COc1ncc(-c2nn([C@@H](C)c3cc4scc(C)n4c(=O)c3-c3cccc(F)c3)c3ncnc(N)c23)cn1 [Example 103, (S)-7-(1-(4-amino-3-(2-methoxypyrimidin-5-yl)-1H-pyrazolo[3,4-d]pyrimidin-1-yl)ethyl)-6-(3-fluorophenyl)-3-met hyl-5H-thiazolo[3,2-α]pyridin-5-one] | 22
64 | COc1ncc(-c2nn([C@@H](C)c3cc4scc(Cl)n4c(=O)c3-c3cccc(F)c3)c3ncnc(N)c23)cn1 [Example 104, (S)-7-(1-(4-amino-3-(2-methoxypyrimidin-5-yl)-1H-pyrazolo[3,4-d]pyrimidin-1-yl)ethyl)-3-chloro-6-(3-fluorophenyl)-5H-thiazolo[3,2-a]pyridin-5-one] | 
 | Cc1csc2nc([C@H](C)n3nc(-c4cnc(OC(C)C)c(F)c4)c4c(N)ncnc43)c(-c3cccc(F)c3)c(=O)n12 [Example 105, (S)-7-(1-(4-amino-3-(5-fluoro-6-isopropoxypyridin-3-yl)-1H-pyrazolo[3,4-d]pyrimidin-1-yl)ethyl)-6-(3-fluorophenyl)-3-methyl-5H-thiazolo[3,2-α]pyrimidin-5-one] | 70
 | Cc1csc2nc([C@H](C)n3nc(-c4cnc(OC(C)C)c(C#N)c4)c4c(N)ncnc43)c(-c3cccc(F)c3)c(=O)n12 [Example 106, (S)-5-(4-amino-1-(1-(6-(3-fluoropheny 1)-3-methyl-5-oxo-5H-thiazolo[3,2-α]pyrimidin-7-yl)ethyl)-1H-pyrazolo[3,4-d]pyrimidin-3-yl)-2-isopropoxynicotin onitrile] | 43

SMILES | IC50 (Homo sapiens, OCI-Ly10, 72 h) [nM] | IC50 [nM]
Cc1csc2nc([C@H](C)n3nc(-c4cnc(OC(C)C)c(C#N)c4)c4c(N)ncnc43)c(-c3cccc(F)c3)c(=O)n12 [Example 100] | 1 | 
